Assay results: EP4428122A1, “SORTILINE MODULATORS” (Vesper Bio Aps, priority 2023, dated 2024)

Assays:
Human (6-His)Sortilin = target: T1, Human (6-His)Sortilin (Homo sapiens, UniProt Q99523); test: Human Sortilin GCI (Grating-Coupled Interferometry) binding assay; details: Creoptix WAVE-RAPID, single concentration, immobilised Human (6-His)Sortilin, 1:1 kinetic binding model; read-out: h-Sortilin GCI KD
T1 construct: purchased RnD Systems
T1 sequence (Q99523 78-831): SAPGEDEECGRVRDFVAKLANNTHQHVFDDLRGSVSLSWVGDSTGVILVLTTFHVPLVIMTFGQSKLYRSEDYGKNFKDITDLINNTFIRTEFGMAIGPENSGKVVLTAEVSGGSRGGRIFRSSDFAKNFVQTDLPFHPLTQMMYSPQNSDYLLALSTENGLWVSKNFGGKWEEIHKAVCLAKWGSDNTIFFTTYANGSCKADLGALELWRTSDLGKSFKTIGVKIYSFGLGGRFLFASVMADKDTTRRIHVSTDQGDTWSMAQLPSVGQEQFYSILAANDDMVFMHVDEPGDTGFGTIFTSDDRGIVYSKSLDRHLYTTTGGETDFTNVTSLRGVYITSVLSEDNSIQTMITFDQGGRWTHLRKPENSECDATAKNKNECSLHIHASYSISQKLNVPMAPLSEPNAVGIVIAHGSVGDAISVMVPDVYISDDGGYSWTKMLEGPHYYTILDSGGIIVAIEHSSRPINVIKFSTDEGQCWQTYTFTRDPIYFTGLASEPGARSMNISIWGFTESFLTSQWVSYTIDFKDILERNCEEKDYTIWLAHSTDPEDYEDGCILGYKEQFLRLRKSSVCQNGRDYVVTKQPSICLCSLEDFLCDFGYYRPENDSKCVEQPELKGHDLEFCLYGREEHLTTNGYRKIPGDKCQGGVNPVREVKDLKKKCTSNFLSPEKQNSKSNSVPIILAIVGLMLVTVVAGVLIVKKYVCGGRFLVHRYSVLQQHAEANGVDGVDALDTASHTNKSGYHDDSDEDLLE
Experimental: The exemplified compounds of the invention were tested in a Grating-Coupled Interferometry (GCI) Sortilin binding assay. The Equilibrium dissociation constant (KD) is a measure of the propensity of a complex (i.e: a ligand and receptor) to dissociate and is used to describe the affinity of an interaction between the constituents of the complex (i.e: a ligand and receptor). The skilled person will recognise that the lower the KD value, the less of the compound needed to achieve the desired effect, and as a result, the chances of undesirable off-target effects are reduced.
Compound affinity was determined by measuring the association and dissociation of compounds to Human (6-His)Sortilin (RnD Systems) using a Creoptix Wave instrument (Creoptix - Malvern Panalytical). Both Human (6-His)Sortilin immobilisation and compound evaluation were performed in HBS-N running buffer: 10 mM HEPES pH 7.4, 150 mM NaCl, 1 % DMSO - Cytiva which was filtered and degassed for 15 minutes before use.
A 4PCH WAVEchip (Creoptix - Malvern Panalytical) was conditioned prior to immobilisiation using 0.2x HBS-N running buffer with 0.1 M Borate pH 9.0, 1 M NaCl (Xantec Bioanalytics) injected across all flow cells. A buffer exchange was performed to 1x HBS-N running buffer and Human (6-His)Sortilin was immobililised in pH 5.0 Acetate solution (Cytiva) via amine coupling following EDC/NHS (Cytiva) surface activation and then passivated via injection of 50 mM Tris pH 7.4.
Compounds were tested in 'WAVE-RAPID' assays at a single concentration (usually: 1 µM, 10 µM or 100 µM) in time-response format (short pulses of increasing duration) using either 'Weak-Binders' (Settings: 400 µl/min flow rate, 40 Hz acquisiton rate, 5 seconds association time and 20 seconds dissociation time) or 'Intermediate Binders' (Settings: 100 µl/min flow rate, 10 Hz acquisiton rate, 25 seconds association time and 300 seconds dissociation time) settings. Which was deemed most appropriate was based upon the affinity and kinetics of the compound tested.
DMSO calibration was performed as per manufacturers requirements by injection of running buffer containing DMSO 0.5% above that of the running buffer DMSO (1.5 % in that instance) every 20 cycles. All data was double referenced (blank and reference-channel subtracted) with KD values calculated by fitting to a `1:1 kinetic' binding model using 'WAVEcontrol' software (Creoptix - Malvern Panalytical).

h-Sortilin = target: T2, h-Sortilin (Homo sapiens, UniProt Q99523); test: Neurotensin scintillation proximity assay (SPA), displacement of [3H]-neurotensin binding; details: 150 nM 6his-Sortilin, 5 nM [3H]-Neurotensin, 8 concentrations, average of at least 2 determinations
T2 sequence (Q99523 78-831): T1 sequence (Q99523 78-831)
Experimental: The exemplified compounds of the invention were tested in a Neurotensin (NTS) scintillation proximity assay (SPA). NTS, which is a 13 amino acid neuropeptide, is a sortilin ligand. The IC50 is a measure of the amount of the compound required to inhibit the binding of NTS to sortilin by 50%. The skilled person will recognise that the lower the IC50 value, the less of the compound needed to achieve the desired effect, and as a result, the chances of undesirable off-target effects are reduced.
Compound affinity was determined by measuring the displacement of [^3H]-neurotensin binding to h-Sortilin in SPA format. Total volume of 40 µl in 50 mM HEPES pH 7.4 assay buffer containing 100 mM NaCl, 2.0 mM CaCl2, 0.1% BSA and 0.1% Tween-20. Compound pre-incubation for 30 minutes at room temperature with 150 nM of 6his-Sortilin before 5 nM [3H]-Neurotensin and Ni chelate imaging beads (Perkin Elmer) were added, after 6 hours the plate was read on a ViewLux with 360 s exposure time. Dose-response evaluation of compounds was performed with 8 concentrations of drugs (covering 3 decades). IC50 values were calculated by nonlinear regression using the sigmoid concentration-response (variable slope) using CDD Vault software. All values reported are average of at least 2 determinations.

Compound | Kd (Human (6-His)Sortilin) [nM] | IC50 (h-Sortilin) [nM]
CC(C)(C)CCC(C)(NCc1ccc2c(c1)CCCO2)C(=O)O (racemic) [Example 6, 2-{[(6-chromanyl)methyl]amino}-2,5,5-trimethylhexanoic acid] | 760 | –
CC(C)(C)CCC(C)(NCc1ccc2c(c1)OCCC2)C(=O)O (racemic) [Example 5, 2-{[(7-chromanyl)methyl]amino}-2,5,5-trimethylhexanoic acid] | 713 | –
CC(C)(C)CCC(C)(NCc1ccc2c(c1)CCC2)C(=O)O (racemic) [Example 4, 2-{[(5-indanyl)methyl]amino}-2,5,5-trimethylhexanoic acid] | – | 1070

Second part, the compound after the results:

Kd (Human (6-His)Sortilin) [nM] | IC50 (h-Sortilin) [nM] | Compound
79 | 440 | CC(C)(C)CC[C@](C)(NCc1ccc2c(c1)CCCC2)C(=O)O [Example 2, (S)-2,5,5-trimethyl-2-(((5,6,7,8-tetrahydronaphthalen-2-yl)methyl)amino)hexanoic acid]
587 | – | CC(C)(C)CCC(C)(NCc1ccc2c(c1)COCC2)C(=O)O (racemic) [Example 8, 2-{[(7-isochromanyl)methyl]amino}-2,5,5-trimethylhexanoic acid]
509 | – | CC(C)(C)CCC(C)(NCc1ccc2c(c1)CCOC2)C(=O)O (racemic) [Example 7, 2-{[(6-isochromanyl)methyl]amino}-2,5,5-trimethylhexanoic acid]
304 | 740 | CC(C)(C)CCC(C)(NCc1ccc2c(c1)CCCC2)C(=O)O (stereo not drawn) [Example 1, 2,5,5-trimethyl-2-(((5,6,7,8-tetrahydronaphthalen-2-yl)methyl)amino)hexanoic acid]
